Laboratory results taken from patent US10385069B2, “Imidazo[2,1-B]thiazole and 5,6-dihydroimidazo[2,1-B]thiazole derivatives useful as S100-inhibitors” (Active Biotech AB, priority 2015, dated 2019).

What follows are compounds tested against T1, interaction between biotinylated human S100A9 and human RAGE-Fc (Homo sapiens, UniProt P06702) (assay: AlphaScreen inhibition assay, biot-hS100A9:hRAGE-Fc). Details: biot-hS100A9 pre-incubated with compound 1 h, assay buffer with CaCl2 and ZnCl2.
T1 construct: made in house; host or cells: E. coli
T1 sequence (P06702 1-114): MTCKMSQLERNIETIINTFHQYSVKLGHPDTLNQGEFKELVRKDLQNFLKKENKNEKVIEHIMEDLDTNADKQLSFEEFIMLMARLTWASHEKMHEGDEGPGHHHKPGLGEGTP
Assay type: binding
Description: Inhibition Assay, Biot-hS100A9:hRAGE-Fc
The AlphaScreen (Amplified Luminescent Proximity Homogeneous Assay) contains two types of beads, Alpha Donor beads and Acceptor beads (PerkinElmer). Upon laser excitation at 680 nm a photosensitizer in the Donor bead converts ambient oxygen to a more excited singlet state. The singlet oxygen molecule diffuses (maximum 200 nm) to react with a thioxene derivative in the Acceptor bead and generates a chemiluminescence reaction. Fluorophores in the Acceptor bead subsequently emit light at 520-620 nm which can be detected in the EnVision® Multilabel plate Reader (PerkinElmer). The beads are light sensitive and all work with the beads is performed under subdued light conditions or using green filters on light sources (Roscolux Chroma Green #389, Rosco).
In the AlphaScreen Inhibition Assay described here, protein A (Staphylococcus aureus) conjugated Acceptor beads are used together with streptavidin coated Donor beads (Perkin Elmer 6760617M). The Acceptor beads are pre-incubated with Fc-tagged recombinant human RAGE (rhRAGE-Fc) allowing binding of the rhRAGE-Fc to protein A on the beads. Biotinylated human S100A9 (biot-hS100A9) is pre-incubated with the low molecular test compounds. The pre-mixes are then added to the wells of a micro-plate and incubated allowing interaction between biot-hS100A9 and rhRAGE-Fc. Subsequent addition of streptavidin coated Donor beads causes binding of the streptavidin to the biotinylated hS100A9. After an additional incubation the signal is measured.
Without inhibitory compounds, the interaction of biot-hS100A9 to rhRAGE-Fc will bring the Acceptor and Donor beads in close proximity thus generating a high signal. With an inhibitor present the complex will not form resulting in a decreased signal. The assay is illustrated in FIG. 1.
Chemicals and Reagents. • AlphaScreen® General IgG (Protein A) Detection Kit, (PerkinElmer 6760617M) • HBS-P buffer (GE Healthcare, BR-1003-68) • HBS-N buffer (GE Healthcare, BR-1003-69) • CaCl2 in HBS-P • ZnCl2 in Milli-Q water • DMSO • Biotinylated hS100A9, (biotinylated via cystein by EZ-link Iodoacetyl-PEG2-Biotin reagent (Pierce no. 21334), in HBS-N • rhRAGE-Fc (R&D Systems, 1145-RG-50), in HBS-P
The AlphaScreen assay method is used for screening of the inhibitory effect of different compound samples at fixed concentrations or for IC50 determination by varying the compound concentrations. Samples of test compounds and references are prepared from solutions in DMSO. Relevant reference inhibitors and DMSO are used as controls for defined inhibition and non-inhibition, respectively in the assay. The percent inhibition in assay for test compounds and references are calculated by comparing their obtained assay signals with the signal values for the control with only DMSO (no compound).
Assay concentration of biotinylated hS100A9 and rhRAGE-Fc are batch dependent, and are determined and defined by separate cross-titration experiments using this AlphaScreen inhibition method to verify the optimal setup regarding signal strength and achievement of a defined inhibition with relevant reference compounds. The Final assay concentrations of Acceptor and Donor beads are 20 μg/mL.
Assay buffer is prepared by adding CaCl2 and ZnCl2 to HBS-P and is used freshly prepared in the experiment.
Biotin-hS100A9 solution for the experiment is prepared by dilution of appropriate amount of stock solution biot-hS100A9 in assay buffer (with CaCl2 and ZnCl2) and incubation in room temperature for 30 minutes.
rhRAGE-Fc solution for the experiment is prepared by dilution appropriate amount of rhRAGE-Fc stock in assay buffer.
Protein A Acceptor beads are diluted in assay buffer and are added to an equal volume of the prepared diluted rhRAGE-Fc solution. The beads are light sensitive. The vial is covered with aluminum foil and incubated at room temperature in the dark until biot-hS100A9+compound incubation is finished (see below). […]

Compared with CN1CC(c2c(C(=O)O)nc3sc4c(Cl)c(F)ccc4n23)C1 [Example 290, 9-Chloro-10-fluoro-3-(1-methylazetidin-3-yl)-7-thia-2,5-diazatricyclo[6.4.0.0^2,6]dodeca-1(8),3,5,9,11-pentaene-4-carboxylic acid], O=C(O)c1nc2sc3c(Cl)c(F)ccc3n2c1C1CC1 [Example 291, 9-Chloro-3-cyclopropyl-10-fluoro-7-thia-2,5-diazatricyclo[6.4.0.0^2,6]dodeca-1(8),3,5,9,11-pentaene-4-carboxylic acid] is 9.4-fold lower in IC50: 940 nM for the first, 100 nM for the second.

First: O=C(O)C1CN2C(=N1)Sc1c2ccc(Br)c1Cl (stereo not drawn) [Example 240, 10-Bromo-9-chloro-7-thia-2,5-diazatricyclo[6.4.0.0^2,6]dodeca-1(8),5,9,11-tetraene-4-carboxylic acid]
Second: O=C(O)C1CN2C(=N1)Sc1c2ccc(F)c1Cl (stereo not drawn) [Example 228, 9-Chloro-10-fluoro-7-thia-2,5-diazatricyclo[6.4.0.0^2,6]dodeca-1(8),5,9,11-tetraene-4-carboxylic acid]
The IC50 of the first is 1.7-fold higher: 430 nM for the first, 260 nM for the second. The second is the more potent here.

CC1(C)Cc2c(sc3nc(C(=O)O)c(Cl)n23)C(C)(C)C1 [Example 207, 3-Chloro-9,9,11,11-tetramethyl-7-thia-2,5-diazatricyclo[6.4.0.0^2,6]dodeca-1(8),3,5-triene-4-carboxylic acid] and CC1(C)Cc2c(sc3nc(C(=O)O)c(Br)n23)C(C)(C)C1 [Example 222, 3-Bromo-9,9,11,11-tetramethyl-7-thia-2,5-diazatricyclo[6.4.0.0^2,6]dodeca-1(8),3,5-triene-4-carboxylic acid] are within 1.5-fold of each other in IC50: 780 nM for the first, 690 nM for the second.

First: CC(=O)N1CCN(Cc2c(C(=O)O)nc3sc4c(n23)CCC(C(C)(C)C)C4)CC1 (stereo not drawn) [Example 275, 3-[(4-Acetylpiperazin-1-yl)methyl]-10-tert-butyl-7-thia-2,5-diazatricyclo[6.4.0.0^2,6]dodeca-1(8),3,5-triene-4-carboxylic acid]
Second: CN(C)c1c(C(=O)O)nc2sc3c(n12)CC(C)(C)CC3(C)C [Example 280, 3-(Dimethylamino)-9,9,11,11-tetramethyl-7-thia-2,5-diazatricyclo[6.4.0.0^2,6]dodeca-1(8),3,5-triene-4-carboxylic acid]
The IC50 of the first is 2.6-fold higher: 1090 nM for the first, 420 nM for the second.

O=C(O)c1cn2c(n1)sc1cc(Cl)cc(Cl)c12 [Example 16, 10,12-Dichloro-7-thia-2,5-diazatricyclo[6.4.0.0^2,6]dodeca-1(8),3,5,9,11-pentaene-4-carboxylic acid] and COc1c(Cl)ccc2c1sc1nc(C(=O)O)cn12 [Example 217, 10-Chloro-9-methoxy-7-thia-2,5-diazatricyclo[6.4.0.0^2,6]dodeca-1(8),3,5,9,11-pentaene-4-carboxylic acid] are within 1.5-fold of each other in IC50: 1590 nM for the first, 1090 nM for the second.

Going from CC1(C(=O)NS(C)(=O)=O)CN2C(=N1)Sc1c2ccc(F)c1Cl (stereo not drawn) [Example 294, 9-Chloro-10-fluoro-N-methanesulfonyl-4-methyl-7-thia-2,5-diazatricyclo[6.4.0.0^2,6]dodeca-1(8),5,9,11-tetraene-4-carboxamide] to O=C(NS(=O)(=O)C1CC1)c1cn2c(n1)sc1c(Cl)c(Cl)ccc12 [Example 22, 9,10-Dichloro-N-(cyclopropanesulfonyl)-7-thia-2,5-diazatricyclo[6.4.0.0^2,6]dodeca-1(8),3,5,9,11-pentaene-4-carboxamide], the IC50 falls from 780 nM to 280 nM (2.8-fold). The second is the more potent here.

Going from O=C(O)c1cn2c3c(sc2n1)CCCCC3 [Example 37, 7-Thia-2,5-diazatricyclo[6.5.0.0^2,6]trideca-1(8),3,5-triene-4-carboxylic acid] to O=C(O)c1cn2c(n1)sc1c(Br)cccc12 [Example 212, 9-Bromo-7-thia-2,5-diazatricyclo[6.4.0.0^2,6]dodeca-1(8),3,5,9,11-pentaene-4-carboxylic acid], the IC50 falls from 1050 nM to 700 nM (1.5-fold). The second is the more potent here.

In the case of O=C(O)Cc1cn2c(n1)sc1c(Cl)c(Cl)ccc12 [Example 19, 2-{9,10-Dichloro-7-thia-2,5-diazatricyclo[6.4.0.0^2,6]dodeca-1(8),3,5,9,11-pentaen-4-yl}acetic acid], the IC50 is reported as 720 nM.
